Reference: article PMC12454639, “Direct disassembly of α-syn preformed fibrils into α-syn monomers by an all-D-peptide” (NPJ Parkinson's Disease, 2025)

Tests used:
PC12 cells = format: cell-based; conditions: 15 µM peptide with 30 nM PFF; n = 4
Method: PC12 cells (Leibniz Institute DSMZ, GE) were cultivated on collagen A-coated (Biochrom GmbH, GE) tissue culture flasks in RPMI 1640 medium supplemented with 5% fetal calf serum and 10% horse serum in a 95% humidified atmosphere with 5% CO2 at 37 °C. 10,000 cells per well in a volume of 100 µl were seeded on collagen A-coated 96-well plates (Thermo Fisher Scientific, USA) and were incubated for 24 h at 37 °C and 300 rpm in a thermo cycler. […] In addition, 15 µM of the peptides alone, cell media, buffer without peptides and 0.1% Triton X-100 (cytotoxic compound) served as controls. After further incubation in a 95% humidified atmosphere with 5% CO2 at 37 °C for 24 h, cell viability was measured using the Cell Proliferation Kit I (MTT) (Roche Applied Science, CH) according to the manufacturer’s protocol. The MTT formazan product was quantified by measuring the absorbance at 570 nm corrected by subtraction of the absorbance at 660 nm in a FLUOStar Optima plate reader (BMG Labtech, GE). All results were normalized to untreated cells grown in medium only. Test on significance was performed using one-way ANOVA with Bonferroni post hoc analysis (OriginPro 2020, OriginLab, USA; n = 4).
Test on significance was performed using one-way ANOVA with Bonferroni post hoc analysis: * […], *** p ≤ 0.01. Mean data are shown with ±SD (n = 4). While the cell viability was reduced by 50 % in the presence of 30 nM soluble small α-syn PFF alone, no toxic effect of the compounds on PC12 was observed. […] Thus, similar cell viability saving effects were found for SVD-1a using a 30-fold lower concentration.

small α-syn PFF seeds = assay: Seeded ThT aggregation assay; format: biochemical; conditions: discussion statement
Method: The Thioflavin T (ThT) assay is commonly used for the visualization of α-syn fibrilization, since the dye ThT is able to bind to the amyloidogenic cross-β-sheet proportions of fibril structures. Recombinant α-syn was thawed on ice and centrifuged for 30 min at 21,000 × g and 4 °C. The concentration of the supernatant was determined as described previously. Lyophilized D-peptides were thawed at RT for 1 h and dissolved in 500 µl PBS pH 7.4. After centrifugation for 30 min at 21,000 × g the supernatant concentration was determined by UV–vis using the corresponding extinction coefficient at A280. All ThT assay experiments were performed at 37 °C with 15 µM ThT and 0.05% sodium azide (w/v) in PBS pH 7.4 if not otherwise stated. ThT fluorescence was monitored with bottom optics at λex = 448 nm and λem = 482 nm in a fluorescence plate reader with orbital averaging on 3 mm (Clariostar or Polarstar Optima, BMG labtech, GE). Prior to measurement start, 120 µl sample solution was transferred to a non-binding 96-half area well plate with transparent flat bottom (Corning, USA). One borosilicate glass bead (d = 3.0 mm, Hilgenberg, GE) was added to each well for all de novo aggregation assays. For seeded aggregation assays, no bead was used, and samples were incubated under quiescent conditions. Wells that surrounded the sample wells were filled with the same volume of buffer to improve heat distribution. Experiments were performed with five replicates (n = 5) if not otherwise stated.
ThT assay was used for different purposes. […] Lag-time and t½ were calculated as described previously. […] Measurements were taken every 5 min (n = 3).
small α-syn PFF seeds were prepared as described previously with some modifications. First, insoluble PFF were produced by incubation of 300 µM recombinant α-syn in a LoBind reaction tube (Eppendorf GmbH, GE) with one borosilicate glass bead (d = 3.0 mm; Hilgenberg, DE) in 20 mM NaPi, pH 7.0, 150 mM NaCl, 0.05% (w/v) sodium azide for one week at 37 °C. The insoluble PFF were harvested by ultracentrifugation at 100,000 × g for 30 min at 4 °C, and the pellet was washed several times with 20 mM NaPi, pH 7.0, 150 mM NaCl. The monomer equivalent concentration was determined by measuring the α-syn concentration in the supernatant after the first centrifugation and subtracting it from the start concentration for fibrilization. […]
ThT fluorescence progression was measured in a 96-well non-binding half-area plate (Corning, USA) with a FLUOStar platereader (BMG labtech, GE) at λex = 448 nm and λem = 482 nm. […] 10 µM α-syn monomer was incubated with 5, 10 and 20 µM peptide at 37 °C, adding one borosilicate glass bead per well (d = 3.0 mm, Hilgenberg, GE) with continuous orbital shaking at 300 rpm in between reads. […]

monomeric α-syn = assay: Affinity of negative-control peptide to monomeric α-syn (method not given); format: binding; conditions: negative-control peptide kgvgnleyqlwalegk-NH2; method not stated
[1] = tested on: α-synA53T–YFP (HEK293T cells); assay: Seeded intracellular aggregation in α-synA53T–YFP cells; format: cell-based, human; conditions: day 3
Text: Fig. 5 SVD-1a inhibits seeded α-syn aggregation in cells. To validate the inhibitory effect of SVD-1a in cells, we used the α-synA53T–YFP cell system, which stably expresses human α-syn with the familial A53T mutation fused to YFP in HEK293T cells and enables fluorescence-based detection of aggregates that show up as highly fluorescent spots within the cells, clearly above background, intracellularly after seeding with small α-syn PFF seeds. In order to avoid interference of the peptide with the uptake of small α-syn PFF seeds, we performed a two-step transfection starting with a first transfection of the peptide and a second transfection with PFFs. […] To quantify the number of cells with aggregates in our images and to avoid experimental bias, we used a fully automated algorithm for image analysis. […] One asterisk denotes p values < 0.05 and three asterisks a p value < 0.001. Error bars indicate standard deviation. […] Treatment with increasing concentrations of SVD-1a, here imaged at 25 µM, led to a concentration-dependent reduction in the number of cells with aggregates (H-J). Panels B, E, and H show nuclei stained with Hoechst 33342. Panels C, F, and I show αSynA53T–YFP fluorescence. Panels D, G, and J show merged images. The scale bar in J represents 100 µm and applies to all panels. The viability of the cells was not reduced by transfection with seeds or in SVD-1a, as shown in Supplementary Fig. 15. Confirmation that highly fluorescent aggregates contain α-syn is shown in Supplementary Fig. 14 by co-immunostaining with syn-211 antibody, anti-α-syn (phospho S129) antibody and 5G4 antibody.
A construct encoding full-length A53T-mutated human α-syn fused with YFP at the C-terminus was synthesized and introduced into the pMK–RQ expression vector (GeneArt; Thermo Fisher Scientific, USA). The α-synA53T–YFP construct was subcloned into the pIRESpuro3 vector (Clontech; Takara Bio, JPN) using NheI (5′) and NotI (3′) restriction sites. HEK293T cells (American Type Culture Collection) were cultured in high-glucose Dulbecco’s modified Eagle’s medium (DMEM; Sigma-Aldrich, USA) supplemented with 10% fetal calf serum (Sigma-Aldrich, USA), and 50 units/ml penicillin as well as 50 μg/ml streptomycin (Sigma-Aldrich, USA). Cells were cultured in a humidified atmosphere of 5% CO2 at 37 °C. Cells plated in DMEM were transfected using Lipofectamine 2000 (Invitrogen; Thermo Fisher Scientific, USA). Stable cells were selected in DMEM containing 1 μg/ml puromycin (EMD Millipore, USA). Monoclonal lines were generated by fluorescence-activated cell sorting of a polyclonal cell population in 96-well plates using a MoFlo XDP cell sorter (Beckman Coulter, USA). Finally, the clonal cell line B5 was selected from among 24 clonal cell lines and is referred to as αSynA53T–YFP cells. Peptides were incubated with 1.5% Lipofectamine 2000 in OptiMEM for 2 h at room temperature. […] On day 3 the cells were imaged with an IN Cell Analyzer 6500HS System (Cytiva, USA) using the blue and green fluorescence channel, and analyzed using IN Carta Image Analysis Software (Cytiva, USA) after an algorithm was established to identify intracellular aggregates in living cells. For each condition, we used four wells and took 16 images per well, which were analyzed by a fully automated algorithm to avoid bias. […]

[2] = tested on: α-synA53T–YFP cells (HEK293T)

“ihyawtphtkhmqewe-NH2 [SVD-1_scrambled, reference compound]” was tested, and the “cell viability saving effect” value (PC12 cells) was “Slight increase of cell viability saving effect”.
For “ihyawtphtrhlqewerrrrr-NH2 [SVD-1_scrambled+5r, reference compound]”, the “effect of control peptide relative to SVD-1 in seeded assay” value (small α-syn PFF seeds) was “improved effects compared to the parental sequence SVD-1 in the seeded assay”.
For “kgvgnleyqlwalegk-NH2 [negative-control peptide, reference compound]”, the “affinity to monomeric α-syn” value (monomeric α-syn) was “no affinity to monomeric α-syn”, the aggregate-positive cells ([1]; 25 µM peptide, transfected, then 30 nM small α-syn PFF seeds) was 85% and the “inhibition of intracellular seeded α-syn aggregation” value ([1]; peptide transfection, then 30 nM PFF seeds) was “not”. The “cell viability, PFF-seeded α-synA53T–YFP cells” value [2] was “did not induce significantly different luminescence in comparison to unseeded cells or seeded cells without peptide treatment”.
